Test results as given in patent US6974799B2, “Compositions containing mixtures of tetrapeptides and tripeptides” (Sederma S.A.S., priority 2003, dated 2005).
No end group written: not given here. *: point of attachment. Oleoyl = CCCCCCCC/C=C\CCCCCCCC(=O)*; Palmitoyl = CCCCCCCCCCCCCCCC(=O)*

Key:
[1] = system: Collagen I; assay: Collagen I in supernatant of normal human skin fibroblasts, Elisa; format: cell-based; settings: for Collagen I: Percentage of variation with respect to solvent: 3 × 10E−4% ascorbic acid, 3 days; for collagen I stimulation (in words): alone or in combination; for collagen I stimulation (in words) / effect on biomolecule synthesis under these experimental conditions (in words): Table 1 conditions
Protocol: In generating the data in Table 1, normal human skin fibroblasts were cultivated in 24 well-plates in DMEM with 10% of Fetal Calf Serum (“FCS”) during 24 h, then rinsed. The cells then received the products to be tested in a medium DMEM without FCS (“Fetal Calf Serum”) containing ascorbic acid. The contact of cells with product was carried out during 3 days, then supernatants was taken and frozen. Each test includes a negative control without solvent, a control solvent and a positive control (10^−6% of Transforming Growth Factor-β (“TGF-β”)). Each determination was carried out n=3. Several repetitions independent of the tests can be made. Assaying of the interesting molecules was carried out by Elisa (Collagen I & IV; Fibronectine) or by a colorimetric method (hyaluronic acid).
(§1) Normal human skin fibroblasts are cultivated in 24 well-plates in DMEM with 10% of FCS during 24 h, then rinsed. The cells then received the products to be tested in a medium DMEM without FCS containing ascorbic acid. The contact of cells with product was carried out during 3 days, then supernatants are taken and frozen. Each test included a negative control without solvent, a control solvent and a positive control (10^E-6% of TGF-β). Each determination was carried out n=3. Several repetitions independent of the tests were made. Assaying of the interesting molecules was carried out by Elisa (Collagen I & IV; Fibronectine) and by a calorimetric method (hyaluronic acid).

[2] = system: collagen; settings: background statement on EYELISS components; cited from earlier work
[3] = system: Fibronectin; assay: Fibronectin in supernatant of normal human skin fibroblasts, Elisa; format: cell-based; settings: 3 × 10E−4% ascorbic acid, 3 days
Protocol: (§2) In generating the data in Table 1, normal human skin fibroblasts were cultivated in 24 well-plates in DMEM with 10% of Fetal Calf Serum (“FCS”) during 24 h, then rinsed. The cells then received the products to be tested in a medium DMEM without FCS (“Fetal Calf Serum”) containing ascorbic acid. The contact of cells with product was carried out during 3 days, then supernatants was taken and frozen. Each test includes a negative control without solvent, a control solvent and a positive control (10^−6% of Transforming Growth Factor-β (“TGF-β”)). Each determination was carried out n=3. Several repetitions independent of the tests can be made. Assaying of the interesting molecules was carried out by Elisa (Collagen I & IV; Fibronectine) or by a colorimetric method (hyaluronic acid). […] Higher concentrations were not tested because of cytotoxicity, and the other biomolecules were not assayed (n.t.=not tested) because of the lack of initial response in collagen I stimulation, which is the essential, primary parameter.
as §1

[4] = system: Collagen IV; assay: Collagen IV in supernatant of normal human skin fibroblasts, Elisa; format: cell-based; settings: 3 × 10E−4% ascorbic acid, 3 days
Protocol: as §2, §1

[5] = system: Hyaluronic Acid; assay: Hyaluronic acid in supernatant of normal human skin fibroblasts, colorimetric method; format: cell-based; settings: 3 × 10E−4% ascorbic acid, 3 days
Protocol: as §2, §1

[6] = system: collagen; assay: Increase in synthesis of collagen (in vitro), fibroblasts of human skin, ELISA; format: cell-based; settings: 72 hours
Protocol: Fibroblasts of human skin are incubated for 72 hours in two culture mediums enriched in vitamin C (1.5 and 15 ppm), in the presence of the peptide N-palmitoyl-Gly-Gln-Pro-Arg (SEQ ID NO: 3) at two different concentrations, 2.5 ppm and 3.6 ppm. After this incubation, the media is collected and cell viability is evaluated by MTT assay. The measurement of collagen is then carried out by ELISA in each cell lysate. Tests were done in triplicate.
In parallel, negative controls should be carried out under the same conditions, but in the absence of the peptides.
The following results, shown in Table 2, give the increase of collagen synthesis compared to the results obtained in the blank tests (without peptide): […]

Acetyl-YGG
Collagen I: Percentage of variation with respect to solvent ([1]; 1 ppm): −2%
Collagen I: Percentage of variation with respect to solvent ([1]; 3 ppm): +5%
Collagen I: Percentage of variation with respect to solvent ([1]; 5 ppm): −11%
collagen I stimulation (in words) [1]: do not show collagen I stimulation

Val-Trp
collagen stimulating activity (in words) [2]: no significant collagen stimulating activity

N-Palmitoyl-Gly-His-Lys [Pal GHK]
Fibronectin: Percentage of variation with respect to solvent ([3]; 1 ppm): +8%
Fibronectin: Percentage of variation with respect to solvent ([3]; 3 ppm): +2%
Fibronectin: Percentage of variation with respect to solvent ([3]; 5 ppm): −15%
Fibronectin: Percentage of variation with respect to solvent ([3]; 7.3 ppm): +13%
Collagen I: Percentage of variation with respect to solvent ([1]; 1 ppm): +9%
Collagen I: Percentage of variation with respect to solvent ([1]; 3 ppm): −11%
Collagen I: Percentage of variation with respect to solvent ([1]; 5 ppm): +11%
Collagen I: Percentage of variation with respect to solvent ([1]; 5 ppm, listed as N-Palmitoyl-Gly-His-Lys): +11%
Collagen I: Percentage of variation with respect to solvent ([1]; 7.3 ppm): −9%
Collagen I: Percentage of variation with respect to solvent ([1]; 7.3 ppm, listed as tripeptide): reduction in synthesis
effect on biomolecule synthesis under these experimental conditions (in words) [1]: essentially no effect
Collagen IV: Percentage of variation with respect to solvent ([4]; 1 ppm): +5%
Collagen IV: Percentage of variation with respect to solvent ([4]; 3 ppm): −4%
Collagen IV: Percentage of variation with respect to solvent ([4]; 5 ppm): +6%
Collagen IV: Percentage of variation with respect to solvent ([4]; 7.3 ppm): −9%
Hyaluronic Acid: Percentage of variation with respect to solvent ([5]; 1 ppm): +3%
Hyaluronic Acid: Percentage of variation with respect to solvent ([5]; 3 ppm): +11%
Hyaluronic Acid: Percentage of variation with respect to solvent ([5]; 5 ppm): 0%
Hyaluronic Acid: Percentage of variation with respect to solvent ([5]; 7.3 ppm): −1%

N-Palmitoyl-Lys-Thr-Thr-Lys-Ser (Palmitoyl-KTTKS) [Pal KTTKS, commercially successful pentapeptide, MATRIXYL, available from SEDERMA, reference compound]
Fibronectin: Percentage of variation with respect to solvent ([3]; 1 ppm): +24%
Fibronectin: Percentage of variation with respect to solvent ([3]; 2 ppm): +20%
Fibronectin: Percentage of variation with respect to solvent ([3]; 4 ppm): +74%
Fibronectin: Percentage of variation with respect to solvent ([3]; 8 ppm): +100%
Collagen I: Percentage of variation with respect to solvent ([1]; 1 ppm): +8%
Collagen I: Percentage of variation with respect to solvent ([1]; 2 ppm): +30%
Collagen I: Percentage of variation with respect to solvent ([1]; 4 ppm): +48%
Collagen I: Percentage of variation with respect to solvent ([1]; 8 ppm): +93%
Collagen IV: Percentage of variation with respect to solvent ([4]; 1 ppm): +6%
Collagen IV: Percentage of variation with respect to solvent ([4]; 2 ppm): +12%
Collagen IV: Percentage of variation with respect to solvent ([4]; 4 ppm): +15%
Collagen IV: Percentage of variation with respect to solvent ([4]; 8 ppm): +22%
Hyaluronic Acid: Percentage of variation with respect to solvent ([5]; 1 ppm): +3%
Hyaluronic Acid: Percentage of variation with respect to solvent ([5]; 2 ppm): +26%
Hyaluronic Acid: Percentage of variation with respect to solvent ([5]; 4 ppm): +28%
Hyaluronic Acid: Percentage of variation with respect to solvent ([5]; 8 ppm): +31%

N-Palmitoyl-Gly-Gln-Pro-Arg (Palmitoyl-GQPR) [Pal GQPR, 500 ppm solution sold as RIGIN by SEDERMA]
Fibronectin: Percentage of variation with respect to solvent ([3]; 0.5 ppm): +1%
Fibronectin: Percentage of variation with respect to solvent ([3]; 1.5 ppm): +15%
Fibronectin: Percentage of variation with respect to solvent ([3]; 2.5 ppm): +35%
Fibronectin: Percentage of variation with respect to solvent ([3]; 3.64 ppm): +56%
Collagen I: Percentage of variation with respect to solvent ([1]; 0.5 ppm): +4%
Collagen I: Percentage of variation with respect to solvent ([1]; 1.5 ppm): −1%
Collagen I: Percentage of variation with respect to solvent ([1]; 2.5 ppm): +19%
Collagen I: Percentage of variation with respect to solvent ([1]; 2.5 ppm, listed as N-Palmitoyl-Gly-Gln-Pro-Arg): +19%
Collagen I: Percentage of variation with respect to solvent ([1]; 3.64 ppm): +65%
Collagen I: Percentage of variation with respect to solvent ([1]; 3.64 ppm, listed as tetrapeptide): +65%
effect on biomolecule synthesis under these experimental conditions (in words) [1]: stimulating effect
increase of collagen synthesis compared to blank tests (without peptide) ([6]; peptide 2.5 ppm, Vitamin C 1.5 ppm): +10%
increase of collagen synthesis compared to blank tests (without peptide) ([6]; peptide 2.5 ppm, Vitamin C 15 ppm): +27%
increase of collagen synthesis compared to blank tests (without peptide) ([6]; peptide 3.6 ppm, Vitamin C 1.5 ppm): +29%
increase of collagen synthesis compared to blank tests (without peptide) ([6]; peptide 3.6 ppm, Vitamin C 15 ppm): +42%
Collagen IV: Percentage of variation with respect to solvent ([4]; 0.5 ppm): +5%
Collagen IV: Percentage of variation with respect to solvent ([4]; 1.5 ppm): −8%
Collagen IV: Percentage of variation with respect to solvent ([4]; 2.5 ppm): −5%
Collagen IV: Percentage of variation with respect to solvent ([4]; 3.64 ppm): −14%
Hyaluronic Acid: Percentage of variation with respect to solvent ([5]; 0.5 ppm): −4%
Hyaluronic Acid: Percentage of variation with respect to solvent ([5]; 1.5 ppm): +9%
Hyaluronic Acid: Percentage of variation with respect to solvent ([5]; 2.5 ppm): −13%
Hyaluronic Acid: Percentage of variation with respect to solvent ([5]; 3.64 ppm): −1%

Transforming Growth Factor-β [TGF-β, reference compound]
Fibronectin: Percentage of variation with respect to solvent ([3]; 10^E−6%): +176%
Collagen IV: Percentage of variation with respect to solvent ([4]; 10^E−6%): +4%
Hyaluronic Acid: Percentage of variation with respect to solvent ([5]; 10^E−6%): +43%

Oleoyl-RGD
Collagen I: Percentage of variation with respect to solvent ([1]; 1 ppm): +5%
Collagen I: Percentage of variation with respect to solvent ([1]; 3 ppm): −3%
collagen I stimulation (in words) [1]: do not show collagen I stimulation

Pal-YGGF (Palmitoyl-YGGF) [palmitoyl derivative of YGGF=Tyr-Gly-Gly-Phe, fragment of enkephaline]
Collagen I: Percentage of variation with respect to solvent ([1]; 1 ppm): +5%
Collagen I: Percentage of variation with respect to solvent ([1]; 3 ppm): −6%
Collagen I: Percentage of variation with respect to solvent ([1]; 5 ppm): +4%
collagen I stimulation (in words) [1]: do not show collagen I stimulation

Oleoyl-RGDS [oleoyl derivative of RGDS=Arg-Gly-Asp-Ser]
Collagen I: Percentage of variation with respect to solvent ([1]; 1 ppm): −7%
Collagen I: Percentage of variation with respect to solvent ([1]; 3 ppm): −2%
collagen I stimulation (in words) [1]: do not show collagen I stimulation
